Measurements reported in patent US7867983B2, “Methods to protect skeletal muscle against injury” (The University of Connecticut, priority 2007, dated 2011).

Columns and labels:
[1] = tested on: skeletal muscle ischemia/reperfusion injury; assay: Mouse hindlimb ischemia and reperfusion model, Evans Blue dye staining of gastrocnemius muscle, wild-type mice; type: in vivo, mouse (C57BL6 wild-type); conditions: WT mice; for EBD-positive area: ligand alone i.p. 2 h before 90 min ischemia, PBS vehicle 28%±6%; for EBD-positive area, agonist plus DPCPX: A1 antagonist DPCPX 0.2 mg/kg i.p. 30 min before agonist; for EBD-positive area, agonist plus MRS1191: A3 antagonist MRS1191 0.05 mg/kg i.p. 30 min before agonist
Protocol: Mouse Hindlimb Ischemia and Reperfusion Model: After 2.5- to 3-month-old wild-type (WT; C57BL6 strain) or PLC β2/β3 knockout mice (in C57BL6 background), each weighing about 23-25 g, were sedated with anesthetic (pentobarbital 50 mg/kg was given by intraperitoneal [i.p.] injection), their right or left hindlimbs (used randomly) were elevated briefly to minimize retained blood before being subjected to ischemia. Ischemia was induced by placement of a constrictor band (Latex O-Rings, Miltex Instruments, York, Pa.) above the greater trochanter with a McGiveney Hemorrhoidal Ligator (7 in long; Miltex). After 90 minutes of warm ischemia at 37° C., the constrictor was removed to allow reperfusion for 24 hours. The mice were continuously maintained on a 37° C. warming pad (Physitemp Instruments Inc, Clifton, N.J.) during the reperfusion. After the mice were killed by anesthetic overdose, the gastrocnemius muscle was quickly frozen, cut into three slices separated by 2-3 mm, and embedded in Shandon Cryomatrix (polyvinyl alcohol 10%, polyethylene glycol 4%; Anatomical Pathology U.S.A., Pittsburgh, Pa.). Each slice was processed as one 10 μm section on a Thermo Electron/Shandon Cryotome (Anatomical Pathology), fixed in ice-cold acetone, air dried, and washed in phosphate-buffered saline (PBS). Each 10 μm section had seven fields. Gastrocnemius was used because of its high proportion of fast-twitch muscle, which is prone to ischemia and reperfusion injury.
Quantification of Skeletal Muscle Injury: Evans Blue dye (EBD), prepared as a 1% wt/vol solution to yielding 1 mg of EBD/10 g body weight), was given via a separate i.p. injection 2.5 hours before the induction of ischemia. EBD stained only injured muscle and EBD-positive cells were quantified. The percent EBD-positive cells in each field was averaged with those from all seven fields within one 10 μm section. The averaged fraction of EBD-positive cells in each 10 μm section was similar among the three sections. Each 10 μm section was also stained with rabbit polyclonal anti-skeletal muscle actin antibodies (ab15265; Abcam Inc, Cambridge, Mass.) and goat polyclonal anti-rabbit IgG conjugated with fluorescein isothiocyanate. Sections were mounted, and their cross sections were viewed with fluorescent microscopy (Evans Blue dye [EBD]-positive cells via a DM580 band pass filter 510-560 nm with emission of 590 nm; fluorescein isothiocyanate cells via a DM510 filter of 450-490 nm with emission at 520 nm). Each field was counted at 20× magnification and their images captured via the two filters for quantification of muscle injury as follows. Images were acquired and stored as JPEG files with a Macrofire camera (Macrofire 1.0, Optronics, Goleta, Calif.). The ImageProPlus Program (version 5.0, Media Cybernetics, Inc, Silver Spring, Md.) was used for the quantitative determination. The percentage of EBD-positive areas was calculated by dividing the area of EBD staining by the total muscle cells, a quantity defined as the total area stained by anti-skeletal muscle actin antibodies and was identical to the total area in each field minus the area not occupied by any cell. The actin-stained area included EBD-positive area, as shown in superimposed EBD- and actin antibody-stained images. Serum creatine kinase (CK) activity was measured with a previously described procedure. The fraction of skeletal muscle staining positive for EBD represented a direct determination of the muscle that was injured, and the serum CK level provided a circulating index of the extent of skeletal muscle injury. Both are established and accepted methods to quantify skeletal muscle injury.
Protocol for Administration of Adenosine Receptor Agonist and Antagonist. […]

[2] = tested on: skeletal muscle ischemia/reperfusion injury; assay: Mouse hindlimb ischemia and reperfusion model, Evans Blue dye staining, PLC β2/β3-null mice; type: in vivo; conditions: agonist alone i.p. before ischemia/reperfusion, mean±SE, PBS 23.4%±4%
Protocol: Mouse Hindlimb Ischemia and Reperfusion Model: After 2.5- to 3-month-old wild-type (WT; C57BL6 strain) or PLC β2/β3 knockout mice (in C57BL6 background), each weighing about 23-25 g, were sedated with anesthetic (pentobarbital 50 mg/kg was given by intraperitoneal [i.p.] injection), their right or left hindlimbs (used randomly) were elevated briefly to minimize retained blood before being subjected to ischemia. Ischemia was induced by placement of a constrictor band (Latex O-Rings, Miltex Instruments, York, Pa.) above the greater trochanter with a McGiveney Hemorrhoidal Ligator (7 in long; Miltex). After 90 minutes of warm ischemia at 37° C., the constrictor was removed to allow reperfusion for 24 hours. The mice were continuously maintained on a 37° C. warming pad (Physitemp Instruments Inc, Clifton, N.J.) during the reperfusion. […]
Quantification of Skeletal Muscle Injury: Evans Blue dye (EBD), prepared as a 1% wt/vol solution to yielding 1 mg of EBD/10 g body weight), was given via a separate i.p. injection 2.5 hours before the induction of ischemia. EBD stained only injured muscle and EBD-positive cells were quantified. […] Each field was counted at 20× magnification and their images captured via the two filters for quantification of muscle injury as follows. […] The ImageProPlus Program (version 5.0, Media Cybernetics, Inc, Silver Spring, Md.) was used for the quantitative determination. The percentage of EBD-positive areas was calculated by dividing the area of EBD staining by the total muscle cells, a quantity defined as the total area stained by anti-skeletal muscle actin antibodies and was identical to the total area in each field minus the area not occupied by any cell. […] Serum creatine kinase (CK) activity was measured with a previously described procedure. […] Both are established and accepted methods to quantify skeletal muscle injury. […]

[3] = tested on: exercise-induced skeletal muscle injury; assay: 15% downhill treadmill exercise-induced skeletal muscle injury, wild-type mice; type: in vivo, mouse (wild type); conditions: wild-type mice injected with agonist, then exercised; P<0.05 vs vehicle
Source text: (§1) Wild type (WT), beta-sarcoglycan-deficient, and PLCβ2/β3-null mice were all 8-10 weeks old and have similar body weights. Beta-sarcoglycan-null mice have been developed as a mouse model of limb-girdle muscular dystrophy. PLCβ2/β3-null mice have been used as a model to determine the physiologic role of these enzyme isoforms in mediating the effect of various adenosine receptor subtypes. The 15% downhill treadmill exercise is an established method to cause exertion-related skeletal muscle injury in rodents and has been used to gauge the success of therapy aimed at reducing skeletal muscle injury in mouse models of muscular dystrophy. Mice were exercised to exhaustion and for similar amount of time. […] Thus, only serum CK activity was used to quantify the extent of skeletal muscle injury in these normal WT mice. In the beta-sarcoglycan-null mice, there was already a significant level of skeletal muscle damage at baseline (in the absence of imposed physical exercise, EBD-positive area was 9.7±2.0%, n=28 mice, SE; serum CK was 2363±310, U/L, n=30 mice, SE). Both EBD staining and serum CK were used to quantify the extent of skeletal muscle injury.
Adult wild-type mice were injected with the A3 receptor agonist Cl-IBMECA. They were then subjected to exercise, and their skeletal muscle injuries were quantified using serum CK was used as a marker of muscle injury. […]

[4] = tested on: exercise-induced skeletal muscle injury; assay: 15% downhill treadmill exercise-induced skeletal muscle injury, beta-sarcoglycan-null mice (limb-girdle muscular dystrophy model); type: in vivo, mouse (beta-sarcoglycan-null); conditions: beta-sarcoglycan-null mice treated, then exercised
Source text: as §1
Beta-sarcoglycan-null mice were used as a model of Limb-Girdle Muscular Dystrophy. […] The extent of skeletal muscle injury was determined by (FIG. 10) serum CK level and (FIG. 11) percentage of EBD-stained area. […]

[5] = tested on: exercise-induced skeletal muscle injury; assay: 15% downhill treadmill exercise-induced skeletal muscle injury, PLCβ2/β3-null mice; type: in vivo, mouse (PLCβ2/β3-null); conditions: PLCβ2/β3-null mice treated, then exercised; P>0.1 vs PBS
Source text: as §1
PLCβ2/β3-null mice were used as a model to determine the role of PLCβ2/β3 in mediating the protective effect on exercise-induced injury by Cl-IBMECA. […] Serum CK levels were used to quantify the extent of skeletal muscle injury. […]

[6] = 90 min ischemia, 24 h reperfusion, mean±SE

SMILES | EBD-positive area ([1]; 24 h reperfusion, mean±SE) | EBD-positive area, agonist plus DPCPX [1, 6] | EBD-positive area, agonist plus MRS1191 [1, 6] | EBD-positive area [2] | further results
CCOC(=O)C1=C(C)NC(c2ccccc2)=C(C(=O)OCc2ccccc2)C1C#Cc1ccccc1 (racemic) [MRS1191, 3-ethyl 5-benzyl-2-methyl-6-phenyl-4-phenylethynyl-1,4-(±)-dihydropyridine-3,5-dicarboxylate] | 23%±4.4% |  |  |  | 
OC[C@H]1O[C@@H](n2cnc3c(NC4CCCC4)nc(Cl)nc32)[C@H](O)[C@@H]1O [CCPA, 2-chloro-N^6-cyclopentyladenosine] | 10.8%±2% | 22%±3.3% | 12.2%±2.4% | 8.5%±2.5% | 
CCNC(=O)[C@H]1O[C@@H](n2cnc3c(N)nc(NCCc4ccc(CCC(=O)O)cc4)nc32)[C@H](O)[C@@H]1O [CGS21680, 2-p-(2-Carboxyethyl)phenethylamino-5′-N-ethylcarboxamidoadenosine] | 6.6%±3.5% | 14.7%±2.3% | 2.4%±1.25% | 4%±1.1% | EBD-positive area, agonist plus SCH 442416 ([1]; A2A antagonist SCH 442416 0.017 mg/kg i.p. 30 min before agonist, 90 min ischemia, 24 h reperfusion, mean±SE): 26%±4%
CNC(=O)[C@H]1O[C@@H](n2cnc3c(NCc4cccc(I)c4)nc(Cl)nc32)[C@H](O)[C@@H]1O [Cl-IBMECA, 2-chloro-N^6-(3-iodobenzyl)adenosine-5′-N-methyluronamide] | 5.4%±2.6% | 4%±1.6% | 21.5%±3.5% | 22%±3.6% | serum CK vs. vehicle after exercise [3]: reduction in the serum CK; serum CK level vs. vehicle after exercise ([4]; P=0.0066 vs vehicle): reduction in the serum CK level; percentage of EBD-positive area vs. vehicle after exercise ([4]; P=0.03 vs vehicle): reduced the percentage of EBD-positive area; serum CK level vs. PBS after exercise [5]: unable to induce a reduction in the serum CK level
CCCn1c(=O)c2[nH]c(C3CCCC3)nc2n(CCC)c1=O [DPCPX] | 19.3%±4.4% |  |  |  | 
C[C@H](Cc1ccccc1)Nc1ncnc2c1ncn2[C@@H]1O[C@H](CO)[C@@H](O)[C@H]1O [R-PIA] |  |  |  |  | extent of injury (EBD staining), result in words ([1]; given prior to ischemia and reperfusion, 0.05 mg/kg i.p.): significant reduction in the extent of injury
